For data set [1] the following is noted: as set forth in the '352, '861 and '622 patents; cited from earlier work.
The conditions of data set [2]: as set forth in the '352, '861 and '622 patents; cited from earlier work. This is another data set of the same source.
In data set [3] the target is T1, vitamin D receptors (Homo sapiens, UniProt P11473).
T1 sequence (P11473 1-427): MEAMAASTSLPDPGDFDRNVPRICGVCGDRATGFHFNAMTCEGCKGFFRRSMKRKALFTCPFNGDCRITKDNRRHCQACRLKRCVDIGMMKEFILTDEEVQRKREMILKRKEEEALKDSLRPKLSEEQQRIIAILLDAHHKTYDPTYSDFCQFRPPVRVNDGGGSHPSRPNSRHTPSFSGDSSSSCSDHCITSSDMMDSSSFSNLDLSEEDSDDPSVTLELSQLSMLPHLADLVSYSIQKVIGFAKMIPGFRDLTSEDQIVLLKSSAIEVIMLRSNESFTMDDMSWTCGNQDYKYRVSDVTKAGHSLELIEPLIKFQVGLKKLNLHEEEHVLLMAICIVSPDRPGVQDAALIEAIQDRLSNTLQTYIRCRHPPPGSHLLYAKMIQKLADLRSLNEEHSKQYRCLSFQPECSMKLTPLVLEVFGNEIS
The note with it: as set forth in the '352, '861 and '622 patents; cited from earlier work.

A short description of data set [4]: Hypercalcemia: serum calcium in adult rats. In kind it is in vivo, Sprague-Dawley rats. The note with it: ip, doses as high as 45 nmol/day, FIG. 6. As for the experimental part:
FIG. 6 is a bar graph comparing the serum calcium levels in adult rats after administration of (20R)-2 MbisP and 1,25(OH)2D3.
(§1) Adult, female Sprague-Dawley rats were obtained from Harlan (Madison, Wis.).
(§2) Upon receipt, the animals were identified by individual tail marks. Animals were housed in suspended, stainless steel, wire-bottom cages. Each cage contained one animal. The animal rooms were maintained at a temperature of 68 to 72° F. and a relative humidity of 25 to 75%. The holding rooms were set to provide 12 hours of light per day. Water and a purified rodent diet (Suda et al., Purified Rodent Diet-Diet 11) containing […] 0.3% phosphorus and fat soluble vitamins A, D, E and K were provided ad libitum.
(§3) Animals were randomly assigned to treatment groups (5 animals/group). All doses were administered intraperitoneally in 100 microliters of propylene glycol. Four to seven consecutive doses were given approximately 24 hours apart. Dosing was initiated after the animals had been allowed to acclimate for at least one week. […]
Twenty-four hours after the final dose, approximately 1 ml of blood was collected from the tail artery of each experimental animal. […] The level of calcium was determined by diluting the serum into 0.1% lanthum chloride and measuring the absorbance on an atomic absorption spectrophotometer (Perkin Elmer Model 3110, Shelton, Conn.).

Data set [5] addresses T2, full-length recombinant rat vitamin D receptor (Rattus norvegicus, UniProt P13053).
T2 construct: Full-length recombinant rat receptor was expressed in E. coli BL21(DE3) Codon Plus RIL cells; histidine tag (C); made in house; host or cells: E. coli BL21(DE3) Codon Plus RIL
T2 sequence (P13053 1-423): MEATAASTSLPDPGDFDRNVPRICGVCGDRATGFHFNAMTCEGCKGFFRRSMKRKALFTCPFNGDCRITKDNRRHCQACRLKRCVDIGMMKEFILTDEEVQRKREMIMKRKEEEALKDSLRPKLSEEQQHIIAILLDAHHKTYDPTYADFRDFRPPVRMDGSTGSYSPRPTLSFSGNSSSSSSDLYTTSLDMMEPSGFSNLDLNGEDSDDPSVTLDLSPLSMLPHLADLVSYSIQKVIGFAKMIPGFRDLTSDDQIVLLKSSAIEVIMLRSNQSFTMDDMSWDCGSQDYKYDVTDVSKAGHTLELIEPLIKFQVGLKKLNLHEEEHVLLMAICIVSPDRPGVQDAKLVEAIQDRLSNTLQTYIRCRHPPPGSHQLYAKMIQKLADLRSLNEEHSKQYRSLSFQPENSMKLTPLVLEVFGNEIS
Briefly: Vitamin D receptor competitive binding with [3H]-1,25-(OH)2-D3. The note with it: competition with [3H]-1,25-(OH)2-D3; FIG. 1. From the text:
FIG. 1 is a graph comparing the relative activity of (20R)-2 MbisP and 1,25(OH)2D3 to compete for binding with [^3H]-1,25-(OH)2-D3 to the full-length recombinant rat vitamin D receptor.
Full-length recombinant rat receptor was expressed in E. coli BL21(DE3) Codon Plus RIL cells and purified to homogeneity using two different column chromatography systems. The first system was a nickel affinity resin that utilizes the C-terminal histidine tag on this protein. The protein that was eluted from this resin was further purified using ion exchange chromatography (S-Sepharose Fast Flow). Aliquots of the purified protein were quick frozen in liquid nitrogen and stored at −80° C. until use. For use in binding assays, the protein was diluted in TEDK50 (50 mM Tris, 1.5 mM EDTA, pH 7.4, 5 mM DTT, 150 mM KCl) with 0.1% Chaps detergent. […]
Unlabeled ligands were dissolved in ethanol and the concentrations determined using UV spectrophotometry (1,25(OH)2D3: molar extinction coefficient=18,200 and λmax=265 nm; Analogs: molar extinction coefficient=42,000 and λmax=252 nm). […]
Radiolabeled and unlabeled ligands were added to 100 mcl of the diluted protein at a final ethanol concentration of ≦10%, mixed and incubated overnight on ice to reach binding equilibrium. […] Total binding was determined from the tubes containing only radiolabeled ligand.

For data set [6], the system named is Human promyelocytic leukemia (HL60) cells. Briefly: HL-60 differentiation (nitro blue tetrazolium reduction). Format: cell-based. The note with it: HL-60 cells in culture; FIG. 2. The method, then: FIG. 2 is a graph comparing the percent HL-60 cell differentiation as a function of the concentration of (20R)-2 MbisP with that of 1,25(OH)2D3.
The study drugs were dissolved in ethanol and the concentrations determined using UV spectrophotometry. Serial dilutions were prepared so that a range of drug concentrations could be tested without changing the final concentration of ethanol (≦0.2%) present in the cell cultures.
Human promyelocytic leukemia (HL60) cells were grown in RPMI-1640 medium containing 10% fetal bovine serum. The cells were incubated at 37° C. in the presence of 5% CO2.
HL60 cells were plated at 1.2×10^5 cells/ml. Eighteen hours after plating, cells in duplicate were treated with drug. Four days later, the cells were harvested and a nitro blue tetrazolium reduction assay was performed (Collins et al., 1979; J. Exp. Med. 149:969-974). The percentage of differentiated cells was determined by counting a total of 200 cells and recording the number that contained intracellular black-blue formazan deposits. Verification of differentiation to monocytic cells was determined by measuring phagocytic activity (data not shown).

The nature of data set [7]: Bone calcium mobilization (serum calcium on low calcium diet). The note with it: rats, ip, four consecutive doses, even very high concentrations; FIG. 4. In kind it is in vivo, Sprague-Dawley rats. The source says:
FIG. 4 is a bar graph comparing the bone calcium mobilization activity of (20R)-2 MbisP with that of 1,25(OH)2D3.
(§4) Male, weanling Sprague-Dawley rats were placed on Diet 11 (0.47% Ca) diet +AEK for one week followed by Diet 11 (0.02% Ca) +AEK for 3 weeks. The rats were then switched to a diet containing 0.47% Ca for one week followed by two weeks on a diet containing 0.02% Ca. Dose administration began during the last week on 0.02% calcium diet. Four consecutive ip doses were given approximately 24 hours apart. Twenty-four hours after the last dose, blood was collected from the severed neck and the concentration of serum calcium determined as a measure of bone calcium mobilization. The first 10 cm of the intestine was also collected for intestinal calcium transport analysis using the everted gut sac method.

For data set [8], the system named is 24-hydroxylase (24Ohase) gene promoter. Kind of data set: In vitro transcription assay (luciferase reporter in ROS 17/2.8 cells). Format: cell-based. The note with it: FIG. 3. The method, then:
FIG. 3 is a graph comparing the in vitro transcription activity of (20R)-2MbisP with that of 1,25(OH)2D3.
Transcription activity was measured in ROS 17/2.8 (bone) cells that were stably transfected with a 24-hydroxylase (24Ohase) gene promoter upstream of a luciferase reporter gene (Arbour et al., 1998). Cells were given a range of doses. Sixteen hours after dosing the cells were harvested and luciferase activities were measured using a luminometer. RLU=relative luciferase units.

Data set [9] can be described thus: Intestinal calcium transport (everted gut sac method). The note with it: rats, ip, four consecutive doses, even very high concentrations; FIG. 5. Format: in vivo, Sprague-Dawley rats.
Text: FIG. 5 is a bar graph comparing the intestinal calcium transport activity of (20R)-2 MbisP with that of 1,25(OH)2D3.
as §4

Data set [10] deals with parathyroid hormone (PTH). Kind of data set: PTH suppression in adult rats. In kind it is in vivo, Sprague-Dawley rats. The note with it: ip, 7 consecutive days, FIG. 7. As for the experimental part: FIG. 7 is a bar graph comparing the percent parathyroid hormone (PTH) suppression in adult rats of (20R)-2 MbisP with 1,25(OH)2D3.
as §1, §2, §3
Twenty-four hours after the final dose, blood was collected from the tail artery and the concentration of bioactive serum PTH was measured using the rat BioActive Intact PTH ELISA Kit from Immutopics, Inc. (San Clemente, Calif.).

In the case of “1α-hydroxy-2-methylene-19-nor-bishomopregnacalciferol”, in data set [1], the cell differentiation activity entry is given as “relatively high”. In [2], the “calcemic activity as compared to 1α,25-dihydroxyvitamin D3” value was “little if any”. The “binding activity to vitamin D receptors” value in data set [3] is recorded as “relatively high”.

For the compound `C=C1[C@H](O)CC(=C/C=C2\CCC[C@]3(C)C([C@H](C)CC)CC[C@@H]23)C[C@H]1O` (stereo in doubt) [2-Methylene-19-nor-(20R)-1α-hydroxy-bishomopregnacalciferol], the “hypercalcemia (serum calcium)” value in [4] was “failed to cause hypercalcemia”. Further, in [5], the “binding to the recombinant vitamin D receptor relative to 1,25-(OH)2D3” value was “approximately equally effective as 1,25-(OH)2D3”. Further, in data set [6], the “times less active than 1,25-(OH)2D3 in causing the differentiation of HL-60 cells” value was “about 5 times”. The bone calcium mobilization result in data set [7] is “does not support”. In addition, the “times less active than 1,25-(OH)2D3 in turning on transcription of a reporter gene coupled to the CYP-24 promoter” value in data set [8] is “about 5 times”. The intestinal calcium transport result in [9] is recorded as “does not support”. Further, the “suppression of parathyroid hormone (PTH) in the plasma” value in data set [10] is recorded as “considerable activity”.

On to “1α-hydroxy-2-methylene-19-nor-(20S)-homopregnacalciferol”, for which, in data set [1], the cell differentiation activity entry is recorded as “relatively high”. Further, in data set [2], the “calcemic activity as compared to 1α,25-dihydroxyvitamin D3” value is on record as “little if any”. Moreover, the “binding activity to vitamin D receptors” value in [3] is reported as “relatively high”.

For `C=C1[C@H](O)CC(=C/C=C2\CCC[C@]3(C)[C@@H](CC)CC[C@@H]23)C[C@H]1O` [1α-Hydroxy-2-methylene-19-nor-pregnacalciferol], the cell differentiation activity result in [1] is given as “relatively high”. Besides, in [2], the “calcemic activity as compared to 1α,25-dihydroxyvitamin D3” value is recorded as “little if any”. Besides, in data set [3], the “binding activity to vitamin D receptors” value is on record as “relatively high”.

The values above are taken from patent US8222235B2, “2-methylene-19-nor-(20R)-1α-hydroxy-bishomopregnacalciferol” (Wisconsin Alumni Research Foundation, priority 2004, dated 2012).
